# According to article PMC2914301 (Cancer research, 2009):
# pKd, pKi: −log10 of the molar value. Entries after “also recorded” stand apart in the source; their conditions may differ.
# Experiments:
# [1] = test system: phospho-Ser^241-PDK1; experiment: Western analysis of phospho-Ser241-PDK1 in BxPC-3 cells; assay type: cell-based, Human; settings: at higher concentrations
# [2] = Preliminary single-dose toxicity, i.p.; assay type: in vivo; settings: single doses up to 250 mg/kg i.p.; preliminary studies
# [3] = biological target: T1, PH domain of PDK1 (Homo sapiens, UniProt O15530); experiment: SPR competitive binding
# T1 sequence (O15530 459-550 limits assumed): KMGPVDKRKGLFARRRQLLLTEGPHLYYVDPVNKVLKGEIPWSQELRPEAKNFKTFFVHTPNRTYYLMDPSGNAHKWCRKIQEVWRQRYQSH
# [4] = biological target: T1, PH domain of PDK1; experiment: SPR direct binding to PDK1 PH domain
# [5] = test system: MiaPaCa-2; experiment: Morphologic apoptosis assay in MiaPaCa-2 cells; assay type: cell-based, Human
# [6] = test system: GSK3β and p70S6K; experiment: Western analysis of AKT downstream targets in BxPC-3 cells; assay type: cell-based, Human; settings: Western blot
# [7] = test system: BxPC-3 pancreatic cancer xenografts; experiment: Antitumor activity against BxPC-3 xenografts in scid mice; assay type: in vivo; settings: 125 mg/kg i.p. twice a day for 5 days
# [8] = test system: Panc-1; experiment: Morphologic apoptosis assay in Panc-1 cells; assay type: cell-based, Human
structure (smiles),measurement,setting,value
"CCCCCCCCCCCCc1ccc(S(=O)(=O)Nc2nncs2)cc1 [Compound 27, 4-dodecyl-N-(1,3,4-thiadiazol-2-yl) benzenesulfonamide]",Effect on phosphorylation of PDK1 on Ser241 (in words),[1],slightly affected
same,Toxicity of single doses,[2],no toxicity
same,pKi,[3],5.26
same,pKd,[4],4.05
same,Apoptosis at 20 μmol/L,[5],31.3 ± 1.6%
same,Effect on GSK3β and p70S6K phosphorylation (in words),[6],inhibited in a dose-dependent manner
same,Antitumor activity,[7],significant antitumor activity with cessation of tumor growth and even regression; also recorded: complete cessation of tumor growth and even some regression
same,Apoptosis at 20 μmol/L,[8],40.0 ± 2.9%
